Experimental data from PubChem BioAssay (NCI).
Where “and” joins values, the source holds several entries; their conditions need not be identical. Equal entries are not always repeated.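 Five concentrations, 48 hours, 96-well plates. GI50 is the concentration that inhibits growth by half. At the TGI there is no net growth.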

Assays:
Experiment in all cases: inhibition of tumour cell growth, NCI panel, 48 h
RPMI-8226 leukemia = system: RPMI-8226 leukemia
MOLT-4 leukemia = system: MOLT-4 leukemia
BT-549 breast = system: BT-549 breast
NCI-H460 lung = system: NCI-H460 lung
MCF7 breast = system: MCF7 breast
SNB-19 CNS = system: SNB-19 CNS
SK-MEL-5 melanoma = system: SK-MEL-5 melanoma
HL-60(TB) leukemia = system: HL-60(TB) leukemia
HS 578T breast = system: HS 578T breast
UACC-62 melanoma = system: UACC-62 melanoma
HOP-92 NSCLC = system: HOP-92 NSCLC

Compound | TGI (RPMI-8226 leukemia) | TGI (MOLT-4 leukemia) | TGI (BT-549 breast) | TGI (NCI-H460 lung) | TGI (MCF7 breast) | TGI (SNB-19 CNS) | TGI (SK-MEL-5 melanoma) | TGI (HL-60(TB) leukemia) | TGI (HS 578T breast) | TGI (UACC-62 melanoma) | GI50 (HOP-92 NSCLC) | TGI (HOP-92 NSCLC) | GI50 (HS 578T breast)
CN(Cc1cnc2nc(N)nc(N)c2n1)c1ccc(C(=O)NC23CC4CC(CC(C4)C2)C3)cc1 | 70.8 µM | 48.5 µM | 31.1 µM | 18.6 µM | 23.6 µM | 18.6 µM | 17.7 µM | > 100 µM | 31.9 µM | 19.3 µM | – | – | –
CCC1(O)CC(OC2CC(N(C)C)C(OC3CC(O)C(OC4OC(C)C(=O)C=C4N)C(C)O3)C(C)O2)c2c(cc3c(c2O)C(=O)c2c(O)cccc2C3=O)C1C(=O)OC (stereo not given) | 0.154 µM and 0.0597 µM | – | – | – | 0.756 µM and 2.64 µM | 2.05 µM | 0.179 µM and 0.101 µM | 0.5 µM and 0.079 µM | 0.594 µM and 4.1 µM | 0.17 µM and 0.0324 µM | 0.0377 µM | 1.41 µM and 2.8 µM | 0.0579 µM
COC(=O)C1CC2(C)C=CC1N(C(=O)OCc1ccccc1)C2 (stereo not given) | > 100 µM | > 100 µM | > 100 µM | > 100 µM | > 100 µM | > 100 µM | > 100 µM | 70.7 µM | > 100 µM | > 100 µM | – | – | –
COc1cc2ccc(C(=O)NCCCNC(=O)c3ccc4cc(OC)c(OC)cc4c3)cc2cc1OC | – | – | > 100 µM | > 100 µM | > 100 µM | > 100 µM | > 100 µM | > 100 µM | > 100 µM | > 100 µM | – | > 100 µM | –
COc1ccc(-n2c(=O)c3[nH]c(=S)[nH]c3n(-c3ccc(OC)cc3)c2=S)cc1 | > 100 µM | > 100 µM | > 100 µM | > 100 µM | > 100 µM | – | > 100 µM | > 100 µM | – | > 100 µM | – | > 100 µM | –
COc1ccccc1-n1c(=O)n(C)c(=O)n1C(C)(C)C | > 100 µM | > 100 µM | > 100 µM | > 100 µM | > 100 µM | > 100 µM | > 100 µM | > 100 µM | > 100 µM | > 100 µM | – | – | –
CC(C)(C)OC(=O)[C@@H]1CCC(=O)N1C1(c2ccccc2)c2ccccc2-c2ccccc21 | – | 51.5 µM | > 100 µM | > 100 µM | > 100 µM | > 100 µM | 51.9 µM | 61.8 µM | > 100 µM | > 100 µM | – | > 100 µM | –
CNc1nnc(CCCCCCCCc2nnc(NC)o2)o1 | – | > 100 µM | > 100 µM | > 100 µM | 38.3 µM | > 100 µM | > 100 µM | > 100 µM | – | – | – | > 100 µM | –
Cc1ccc(S(=O)(=O)NC(=O)NC(Cc2ccc(O)cc2)C(=O)O)cc1 (stereo not given) | > 100 µM | > 100 µM | > 100 µM | > 100 µM | – | > 100 µM | > 100 µM | > 100 µM | > 100 µM | – | – | > 100 µM | –
CC1CC/C(=C\c2ccc(F)cc2)C2=C1C(c1ccc(F)cc1)N1C(=O)CSC1=N2 (stereo not given) | > 100 µM | 60.6 µM | > 100 µM | > 100 µM | > 100 µM | > 100 µM | > 100 µM | > 100 µM | > 100 µM | > 100 µM | – | – | –
